Series [1] in a line: Sensitivity of photosensitive layer with 3,3',4,4'-tetrakis(tert-butyldioxycarbonyl)benzophenone (Example 11). The settings on record: 630 nm. From the text:
(§1) 100 parts of pentaerythritol triacrylate, 100 parts of polymethacrylate polymer [synthesized according to the methods described in Jikkenkagakukoza, Maruzen K. K., 4th edition, volume 28, page 121, 1992; Kobunshigosei no Jikkenho (Experimental method for polymer synthesis), Kagakudojin K. K., coauthored by Takayuki Otsu and Masaetsu Kinoshita, page 138, 1972; average molecular weight 150,000; methyl ester/isobutyl ester/cyclohexyl ester/free carboxylic acid=27/36/25/12], 7.9 parts of 2,4,6-tris(trichloromethyl)-s-triazine and 1 part of a squarylium compound were dissolved in 1900 parts of ethyl cellosolve to give a photosensitive resin solution. This photosensitive solution was spin-coated on an aluminium plate treated with grinding and anodic oxidation, at 1000 rpm so that the dry-state thickness became 2 μm. On this, a 10% aqueous polyvinyl alcohol (Kurarey Poval 706) solution was spin-coated at 1500 rpm so that the dry-state thickness became 1 μm to give a over-coat layer. A step tablet was piled closely on the resulting photosensitive layer, and the rays having the wavelength around 630, 650 or 680 nm were irradiated from 3kw ultra-high pressure mercury lamp through a glass filter. The rays having the wavelength around 630 nm (155 μJ/cm^2 ·s) were obtained by passing the rays from the above mercury lamp through a colored glass filter R-61, an interference filter KL-63 (both were manufactured by Toshiba Glass Co., Ltd.) and a heat rays absorbing filter HA-30 (manufactured by HOYA Corporation), the rays having the wavelength around 650 nm (177 μJ/cm^2 ·s) were obtained by passing the rays from the above mercury lamp through a colored glass filter R-63, an interference filter KL-65 (both were manufactured by Toshiba Glass Co., Ltd.) and HA-30 and the rays having the wavelength around 680 nm (88 μJ/cm^2 ·s) were obtained by passing the rays from the above mercury lamp through a glass filter R-66, an interference filter KL-68 (both were manufactured by Toshiba Glass Co., Ltd.) and HA-30. Then, the development was carried out with a PS plate developer DN3C (manufactured by Fujiphoto Film Co., Ltd.) diluted 1.5-folds with distilled water, an ink was attached thereon with a PS plate developing ink PI-2 (manufactured by Fujiphoto Film Co., Ltd.) and the sensitivity was scored by obtaining an energy amount necessary for hardening from hardening step number with an ink attached thereto.
The sensitivity when the rays having the wavelength around 630 nm were irradiated was obtained by repeating the same procedures as those of Example 9 except that 8 parts of 3,3',4,4'-tetrakis(tert-butyldioxycarbonyl)benzophenone was used in place of 7.9 parts of 2,4,6-tris(tichloromethyl)-s-triazine.

Series [2] is described as follows: Sensitivity of photosensitive layer with iron(II) hexafluorophosphate complex and CARBOSET XL-44 (Example 10). Conditions: 630 nm; iron(II) hexafluorophosphate complex, CARBOSET XL-44.
Excerpt: as §1
The sensitivity when the rays having the wavelength around 630 nm were irradiated was obtained by repeating the same procedures as those in Example 9 except that 8 parts of (.eta.^6 -benzene) (.eta.^5 -cyclopentadienyl)iron(II) hexafluorophosphate was used in place of 7.9 parts of 2,4,6-tris(trichloromethyl)-s-triazine and CARBOSET,XL-44 (manufactured by BF Goodrich) was used in place of polymethacrylate polymer (methyl ester/isobutyl ester/cyclohexyl ester/free carboxylic acid=27/36/25/12).

Series [3] can be described thus: Degraded rate of squarylium compound in photosensitive resin solution with 2,4,6-tris(trichloromethyl)-s-triazine (Example 7). The settings on record: 40° C., 3 days, light-screened, ethyl cellosolve, relative to Compound (A). It is filed as physicochemical. As for the experimental part:
(§2) 0.5 g of pentaerythritol triacrylate, 0.5 g of butyl methacrylate/acrylic acid copolymer (weight-average molecular weight 3,100, copolymerization ratio 66/34), 60 mg of 2,4,6-tris(trichloromethyl)-s-triazine and 2 mg of a squarylium compound were dissolved in ethyl cellosolve to 25 ml to give a photosensitive resin solution. This solution was light-screened and allowed to stand at 40° C. for 3 days. The absorbance at the maximum absorption wavelength present in 600 to 700 nm was measured with a spectrophotometer before (A1) and after (A2) being allowed to stand. The degraded rate of the squarylium compound was obtained according to the following equation:
(§3) Degraded rate (%)=(A1-A2)/A1 ×100
The degraded rates of squarylium Compounds 1 to 9 are shown as a relative value based on the degraded rate of Compound (A) in Table 5.

Series [4] in a line: Sensitivity of photosensitive layer with 2,4,6-tris(trichloromethyl)-s-triazine (Example 9). The settings on record: energy necessary for hardening, s-triazine radical generator.
Excerpt: as §1

Series [5] can be described thus: Degraded rate of squarylium compound in photosensitive resin solution with iron(II) hexafluorophosphate complex (Example 8). It is filed as physicochemical. Set-up: key: degraded rate relative to that of Compound (A). Conditions: 40° C., 32 days, light-screened, ethyl cellosolve, relative to Compound (A). As for the experimental part: as §2, §3
0.5 g of pentaerythritol triacrylate, 60 mg of polymethyl methacrylate (manufactured by Aldrich; weight-average molecular weight 12,000), 90 mg of (.eta.^6 -benzene)(.eta.^5 cyclopentadienyl)iron(II) hexafluorophosphate and 2 mg of a squarylium compound were dissolved in ethyl cellosolve to 25 ml to give a photosensitive resin solution. Thereafter, the same procedures as those in Example 7 were repeated except that a time for being allowed to stand of 3 days was replaced with that of 32 days to give the degraded rate of the squarylium compound. The degraded rate of squarylium Compounds 1 to 9 are shown as a relative value based on the degraded rate of Compound (A) in Table 6.

A short description of series [6]: Optical absorption property in chloroform. It is filed as physicochemical. The settings on record: solvent chloroform.
The conditions of series [7]: disclosed in JP-A 63-138345, JP-A 63-142346, JP-A 2-48665; cited from earlier work.
For series [8] the following is noted: in the dark, light screened; background statement; cited from earlier work.
The conditions of series [9]: background statement; cited from earlier work.

The structures appear in SMILES notation.

On to `CCCCN1C(=CC2=C([O-])C(=CC3=[N+](CCCC)c4ccc5ccccc5c4C3(C)C)C2=O)C(C)(C)c2c1ccc1ccccc21` [Compound 7], for which the Sensitivity in series [1] is on record as 0.20 mJ/cm^2; in series [2] it was 5.8 mJ/cm^2; in series [4] (630 nm), 0.47 mJ/cm^2; in [4] (650 nm), 0.40 mJ/cm^2; in series [4] (680 nm), 0.37 mJ/cm^2. The “Relative value of degraded rate” value in series [3] is reported as 0.31; in series [5] it was 0.56.

As to `CCCN1C(=CC2=C([O-])C(=CC3=[N+](CCC)c4ccc5ccccc5c4C3(C)C)C2=O)C(C)(C)c2c1ccc1ccccc21` [Compound 2], the entries for the “Relative value of degraded rate” value in [3] and in series [5] were 0.25 and 0.48, respectively. Further, the Sensitivity in [4] (630 nm) was determined as 0.47 mJ/cm^2; in [4] (650 nm) it was 0.40 mJ/cm^2; in series [4] (680 nm), 0.37 mJ/cm^2. The same molecule showed a logε in series [6] of 5.5. The same molecule registered a λ max in series [6] of 667 nm.

Regarding `CC(C)CN1C(=CC2=C([O-])C(=CC3=[N+](CC(C)C)c4ccc5ccccc5c4C3(C)C)C2=O)C(C)(C)c2c1ccc1ccccc21` [Compound 5], the Sensitivity is listed as 0.20 mJ/cm^2 in series [1]; 11 mJ/cm^2 in [2]; 0.47 mJ/cm^2 in series [4] (630 nm); 0.56 mJ/cm^2 in [4] (650 nm); 0.28 mJ/cm^2 in [4] (680 nm). The “Relative value of degraded rate” value in series [3] was 0.15; in series [5] it was 0.42. In series [6], this molecule came in with a logε of 5.5. Further, the λ max in series [6] was 669 nm.

With `CC(C)CCN1C(=CC2=C([O-])C(=CC3=[N+](CCC(C)C)c4ccc5ccccc5c4C3(C)C)C2=O)C(C)(C)c2c1ccc1ccccc21` [Compound 8], the “Relative value of degraded rate” value in series [3] amounted to 0.32; in [5] it was 0.43. In [6], this molecule displayed a logε of 5.5. The molecule further had a λ max in [6] of 667 nm.

Take `CCN1C(=CC2=C([O-])C(=CC3=[N+](CC)c4ccc5ccccc5c4C3(C)C)C2=O)C(C)(C)c2c1ccc1ccccc21` [Compound 1]: the figures for the “Relative value of degraded rate” value in [3] and in [5] were 0.34 and 0.51, respectively. Further, the Sensitivity in [4] (630 nm) turned out to be 0.47 mJ/cm^2; in series [4] (650 nm), 0.40 mJ/cm^2; in [4] (680 nm) it was 0.37 mJ/cm^2.

With `CCCCCN1C(=CC2=C([O-])C(=CC3=[N+](CCCCC)c4ccc5ccccc5c4C3(C)C)C2=O)C(C)(C)c2c1ccc1ccccc21` [Compound 6], the Sensitivity in series [1] was determined as 0.099 mJ/cm^2; in series [2] it was 5.8 mJ/cm^2; in series [4] (630 nm) it was 0.56 mJ/cm^2; in [4] (650 nm), 0.40 mJ/cm^2; in series [4] (680 nm) it was 0.37 mJ/cm^2. The “Relative value of degraded rate” value in series [3] is 0.28; in [5], 0.46. In series [6], this molecule showed a logε of 5.5. The molecule also had a λ max in series [6] of 667 nm.

Take `CC(C)N1C(=CC2=C([O-])C(=CC3=[N+](C(C)C)c4ccc5ccccc5c4C3(C)C)C2=O)C(C)(C)c2c1ccc1ccccc21` [Compound 3]: the Sensitivity in series [1] is given as 0.083 mJ/cm^2; in [4] (630 nm) it was 0.39 mJ/cm^2; in series [4] (650 nm), 0.40 mJ/cm^2; in series [4] (680 nm), 0.26 mJ/cm^2. Besides, the “Relative value of degraded rate” value in [3] worked out at 0.24; in series [5], 0.44. For the same molecule, in series [6], the logε is reported as 5.5. This molecule also showed a λ max in series [6] of 666 nm.

In the case of `CCCCCCN1C(=CC2=C([O-])C(=CC3=[N+](CCCCCC)c4ccc5ccccc5c4C3(C)C)C2=O)C(C)(C)c2c1ccc1ccccc21` [Compound 9], the Sensitivity turned out to be 0.17 mJ/cm^2 in series [1] and 8.7 mJ/cm^2 in series [2]. In addition, the figures for the “Relative value of degraded rate” value in series [3] and in series [5] were 0.26 and 0.52, respectively. In addition, the logε in series [6] is listed as 5.5. The molecule further yielded a λ max in series [6] of 668 nm.

For `CN1C(=CC2=C([O-])C(=CC3=[N+](C)c4ccc5ccccc5c4C3(C)C)C2=O)C(C)(C)c2c1ccc1ccccc21` [A, reference compound], the Sensitivity came out at 0.43 mJ/cm^2 in series [1]; 11 mJ/cm^2 in [2]; 0.91 mJ/cm^2 in series [4] (630 nm); 0.56 mJ/cm^2 in series [4] (650 nm); 0.65 mJ/cm^2 in series [4] (680 nm). In addition, the “Relative value of degraded rate” value in [3] and in series [5] was 1.0 each time. In addition, the maximum absorption wavelength in [7] is given as 673 nm. For the same molecule, the “degradation in photosensitizer solution” value in series [8] is “easily degraded in the dark”. Also, in [9], the “solubility in an organic solvent or a monomer” value was “low solubility”.

Consider `CCCCN1C(=CC2=C([O-])C(=CC3=[N+](CCCC)c4ccc5ccccc5c4C3(C)C)C2=O)C(C)(C)c2c1ccc1ccccc21` [Compound 4], for which the “Relative value of degraded rate” value in series [3] was determined as 0.29; in series [5], 0.60. The values for the Sensitivity in series [4] (630 nm), in [4] (650 nm) and in series [4] (680 nm) were 0.39 mJ/cm^2, 0.40 mJ/cm^2 and 0.37 mJ/cm^2, respectively.

Source of the values: patent US5681685A, “Photopolymerizable composition containing squarylium compound” (Kyowa Hakko Kogyo Co., Ltd., priority 1994, dated 1997).
